Peptide text beside a SMILES is read from it. * marks the point of attachment. Cbz = O=C(OCc1ccccc1)*; CH2F = FC*
What was measured:
[1] = tested on: Hela cells; assay: STS-induced apoptosis in Hela cells, Hoechst staining of apoptotic nuclei; type: cell-based, human; details: for percentages of apoptotic cells: Hela cells, one day; for effect on STS-induced apoptosis: HeLa cells transfected with Ku70 construct, 24 hours
Description: Hela cells (10^6 cells) were transfected with 0.5 μg pEGFP and 1.0 μg pCMV-2B (Vector), pCMV-2B-Ku70 (Ku70 wt), pCMV-2B-Ku701-535 (Ku701-535), or pCMV-2B-Ku70536-609 (Ku70536-609). One day following transfection, cells were treated with 200 nM STS and the number of apoptotic cells was counted as described in FIG. 1 after 24 hours of STS treatment.
Hela cells (10^6 cells) were treated with 200 nM STS in the absence (STS) or presence of z-VAD-fmk (STS+z-VAD).

[2] = tested on: HEK293T cells; assay: UVC-irradiation-induced apoptosis in HEK293T cells, Hoechst staining; type: cell-based; details: for effect on UVC-irradiation-induced cell death: HEK293T cells transfected with Ku70 construct, 200 J/m^2 UVC, 24 hours
Description: HEK293T cells (10^6 cells) were transfected with 0.5 μg PEGFP and 1.0 μg pCMV-2B (Vector), pCMV-2B-Ku70 wt (Ku70 wt), or pCMV-2B-Ku70536-609 (Ku70536-609). One day following transfection, cells were exposed to 200 J/m^2 of UVC-irradiation. After 24 hours, apoptotic cells were counted as described in FIG. 1.
One day following transfection, except in the control group (Control), cells were exposed to UVC-irradiation in the absence (UV or UV+Ku70) or the presence of 50 uM z-VAD-fmk (UV+z-VAD).
HEK293T cells, HeLa cells, and mouse embryonic fibroblasts (MEF) were cultured in DMEM supplemented with 10% fetal bovine serum (FBS).

[3] = tested on: HEK293T cells; assay: Bax-induced apoptosis in HEK293T cells (pcDNA3-Bax transfection); type: cell-based; details: HEK293T cells co-transfected with pcDNA3-Bax and Ku70 construct, 24 hours
Description: 10^6 cells were transfected with 1.0 μg of pcDNA3 (Control) or pcDNA3-Bax (Bax) together with 0.5, 1.0, or 2.0 μg of pCMV-2B-Ku70 wt (Ku70 wt) or pcDNA3-Myc-XIAP (XIAP). In “Bax+Vector” group, 1.0 μg pcDNA3-Bax and 2 ug of pCMV-2B were used, respectively (Control and Bax+Vector). All the cells were also co-transfected with 0.5 μg pEGFP for the marking of transfected cells. Apoptosis in the transfected cells was analyzed 24 hours following transfection with Hoechst dye staining of the nucleus as described in Experimental Procedure. […] 10^6 cells were transfected with 1.0 μg pcDNA3-Bax and 2.0 μg pCMV-2B (Bax+Vector), pCMV-2B-Ku70 wt (Bax+Ku70 wt), or pcDNA3-Myc-XIAP (Bax+XIAP). […] Apoptosis in the transfected cells was analyzed at 24 hours (Control) or the indicated time points following transfection. […] After 24 hours, apoptotic cells were counted as described in FIG. 1B. […] The number of apoptotic cells was determined as described in FIG. 1B. […] Apoptosis in the transfected cells was analyzed at the indicated periods following transfection as described in FIG. 1C.
HEK293T cells, HeLa cells, and mouse embryonic fibroblasts (MEF) were cultured in DMEM supplemented with 10% fetal bovine serum (FBS). […] Apoptosis in the transfected cells were analyzed as follows: Plasmid encoding EGFP (0.5 ug of pEGFP) was transfected to all the groups to mark the transfected cells. […]

[4] = molecular target: T1, Bax (Homo sapiens, UniProt Q07812); assay: Co-immunoprecipitation of Flag-tagged Ku70 constructs and Bax; type: binding; details: HEK293T cells, Flag-tagged constructs, 50 uM z-VAD-fmk, Chaps-based buffer
T1 construct: expressed in transfected cells; host or cells: HEK293T
Description: Interaction of Ku70 and Bax. […] (FIG. 4D) Co-immunoprecipitation of Flag-tagged-Ku70 and endogenous Bax. HEK293T cells (10^6 cells) were co-transfected with 1.0 μg pcDNA3-Bax and 1.0 μg pCMV-2B-control vector (Flag-tagged firefly luciferase), pCMV-2B-Ku70 wt (Flag-Ku70 wt), pCMV-2B-Ku701-535 (Flag-Ku701-535), pCMV-2B-Ku70496-609 (Flag-Ku70496-609) or pCMV-2B-Ku70536-609 (Flag-Ku70536-609) in the presence of 50 μM z-VAD-fmk. Co-immunoprecipitation was performed as described in FIG. 4C, and Western blot of Bax was done with anti-human Bax polyclonal antibody.
Immunoprecipitation was performed as follows according to the previous methods (Hsu and Youle, 1998, Matsuyama, 1998a). After precleaning of 600 ul of the sample with 50 ul of Protein G-Sepharose at 4° C. for 1 hour, immunoprecipitations were performed by incubating 200 ul of lysates with 20 ul of Protein G-Sepharose preabsorbed with 2 ug of anti-Bax polyclonal antibody or 2 ug of anti-Ku70 monoclonal antibody at 4° C. for 2 hours. After extensive washing in the buffer, beads were boiled in 40 ul of Laemmli buffer and 20 ul of the eluted proteins were subjected to SDS-PAGE immunoblot analysis.

[5] = tested on: Du145 cells; assay: Apoptosis in Bax-deficient Du145 cells; type: cell-based, human; details: Du145, 200 J/m^2 UVC, 24 hours
Description: Du145 cells (10^6 cells) were transfected with 0.5 μg PEGFP and 1.0 μg pCMV-2B (Vector), pcDNA3-Myc-XIAP (XIAP), pCMV-2B-Ku70 wt (Ku70 wt), or pCMV-2B-Ku70536-609 (Ku70536-609). One day following transfection, cells were exposed to 200 J/m^2 of UVC-irradiation. After 24 hours, apoptotic cells were counted as described in FIG. 1.
Apoptosis was induced by pcDNA3-human Bax (Bax-encoding plasmid)-transfection, Staurosporin (STS)-treatment, UVC-irradiation, anti-Fas-antibody-treatment (clone CH11), and human recombinant TRAIL-treatment (BD-Pharmingen). The amount of the plasmids, the concentration of STS, Fas-antibody, and TRAIL, and the energy of UVC-irradiation are as described in the figure legends. Apoptosis in the transfected cells were analyzed as follows: Plasmid encoding EGFP (0.5 ug of pEGFP) was transfected to all the groups to mark the transfected cells. One day following transfection of the plasmids listed in the figure legends or treatment of the cells with staurosporin (STS) or UVC-irradiation, cells were stained with Hoechst dye and cells with apoptotic nuclei were counted in GFP expressing cells under fluorescent microscope as previously reported (Wei, et al., 2001). Each point in the figures showing percentages of apoptosis represents the mean±SE of three experiments.

[6] = tested on: Bax; assay: Subcellular localization / mitochondrial translocation of Bax (fractionation, Western blot, confocal); type: cell-based; details: HeLa cells 200 nM STS; HEK293T cells UVC 200 J/m^2
Description: FIG. 6A: Subcellular localization of Bax and Ku70. HeLa cells (10^7 cells) were transfected with 10 μg pCMV-2B (Control, STS,) or pCMV-2B-Ku70 (STS+Ku70). One day following transfection, except in the control group (Control), cells were treated by 200 nM STS (STS). One day after STS-treatment, cells were collected and subcellular fractionation was performed as described in Experimental Procedure. The levels of Ku70 (Ku70) and Bax (Bax) in each fraction were analyzed by Western blotting as described in Experimental Procedure. FoF1 ATP synthase subunit α (F1α) and PCNA (PCNA) were used as markers for mitochondrial and nuclear fractions, respectively. HM stands for “Heavy Membrane” fraction containing mitochondria. […] Cytosol fractions (20 μg protein) were separated by SDS-PAGE and analyzed by Western blotting for Ku70 (anti-Ku70 monoclonal antibody, BD-Pharmingen) and β-Tubulin (anti-β-Tubulin monoclonal antibody, BD-Pharmingen) levels. […] MEFs derived from wild-type (Ku70+/+) or Ku70-knockout mice (Ku70−/−) were analyzed as described in FIG. 6A. […] MEFs derived from wild-type (Ku70+/+) or Ku70-deficient (Ku70−/−) mice were treated with STS (200 nM) and cells were analyzed at indicated various periods after treatment as described in FIG. 6A. […]

[7] = tested on: Bax; assay: Mitochondrial translocation of Bax after TRAIL treatment in T98-G and Hep3B cells; type: cell-based, human; details: T98G and Hep3B, 100 ng/ml TRAIL, 24 hours
Description: FIG. 14. […] One day following the transfection, cells were treated by etoposide (20 uM). One day after the addition of etoposide into the culture, cells were collected and subcellular fractionation was performed as described in FIG. 9. […] Bax leveles in the samples of the fractions of the cytosol (“Cytosol”) and the heavy membrane (“HM”) were analyzed by Western blotting (middle and lower panels). […] All cells were also co-transfected with the plasmid encoding Green Fluorescent Protein (GFP) (pEGFP plasmid) for the detection of the transfected cells by GFP expression. One day following the transfection, etoposide (20 uM), cisplatin (20 uM), doxorubicin (1 uM), or TRAIL (100 ng/ml) was added to the culture, and cells were culture for 48 hours. The percentages of apoptotic cells were counted in GFP-expressing cells by staining the nucleus with Hochst-dye on day 1 and 2 of the culture. […] T98-G (glioma cell line) and Hep3B (hepatoma cell line) cells were cultured for 24 hours in the absence (“Control”) or the presence (“TRAIL”) of 100 ng/ml TRAIL. After the culture, cells were collected and subcellular fractionation was performed as described in FIG. 2. The samples of the cytosol fraction (20 ug protein) (“Cytosol”) and the equivalent proportion of heavy membrane fraction (“HM”) were subjected to Western analysis of Bax.

T1 sequence (Q07812 whole entry): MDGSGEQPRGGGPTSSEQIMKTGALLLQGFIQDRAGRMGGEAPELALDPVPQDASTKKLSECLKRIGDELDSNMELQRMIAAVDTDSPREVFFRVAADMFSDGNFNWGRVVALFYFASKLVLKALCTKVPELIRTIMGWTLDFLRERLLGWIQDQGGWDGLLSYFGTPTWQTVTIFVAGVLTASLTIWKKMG

binding to Bax (co-immunoprecipitation) [4]	Molecule	effect on STS-induced apoptosis ([1]; 200 nM STS)	effect on UVC-irradiation-induced cell death [2]	effect on Bax-induced apoptosis [3]	other results
	CN[C@@H]1C[C@H]2O[C@@](C)([C@@H]1OC)n1c3ccccc3c3c4c(c5c6ccccc6n2c5c31)C(=O)NC4 [STS, Staurosporine, reference compound]				percentages of apoptotic cells ([1]; 200 nM STS, control 3±1%): 49±4%
	COC(=O)C[C@H](NC(=O)[C@H](C)NC(=O)[C@@H](NC(=O)OCc1ccccc1)C(C)C)C(=O)CF [z-VAD-fmk, reference compound] (Cbz-Val-Ala-Asp(OMe)-CH2F)				percentages of apoptotic cells ([1]; 200 nM STS in presence of z-VAD-fmk): 11±3%; percentages of apoptotic cells ([2]; HEK293T cells, UVC 200 J/m^2 in presence of 50 uM z-VAD-fmk, one day, UV alone 42±5%): 9±1%
bound to Bax	Ku70496-609: Ku70 mutant construct encoding amino acids 496-609 of Ku70, lacking Ku80-binding domain	retained the cytoprotective activities	retained the cytoprotective activities	retained the cytoprotective activities	
bound to Bax	Ku70536-609: Ku70 mutant expressing only the C-terminal 74 amino acids of Ku70	sufficient to block	sufficient to block	sufficient to block	effect on UVC-irradiation-induced cell death in Bax-deficient cells [5]: did not rescue Bax-deficient cells from UVC-irradiation-induced cell death; mitochondrial translocation of Bax induced by STS-treatment or UVC-irradiation [6]: inhibited Bax relocalization induced by UVC-irradiation
	TRAIL: cytokine, Tumor Necrosis Factor-Related Apoptosis-Inducing Ligand, human recombinant (protein, UniProt P50591 1-281, looked up) Tumor necrosis factor ligand …: MAMMEVQGGPSLGQTCVLIVIFTVLLQSLCVAVTYVYFTNELKQMQDKYSKSGIACFLKEDDSYWDPNDEESMNSPCWQVKWQLRQLVRKMILRTSEETISTVQEKQQNISPLVRERGPQRVAAHITGTRGRSNTLSSPNSKNEKALGRKINSWESSRSGHSFLSNLHLRNGELVIHEKGFYYIYSQTYFRFQEEIKENTKNDKQMVQYIYKYTSYPDPILLMKSARNSCWSKDAEYGLYSIYQGGIFELKENDRIFVSVTNEHLIDMDHEASFFGAFLVG				mitochondrial translocation of Bax [7]: did not induce the mitochondrial translocation of Bax
